Measurements from PubChem BioAssay (NCI).
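Test compounds were applied to cells in 96-well plates for 48 hours at 5 doses. TGI: total growth inhibition.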

What was measured:
Assay in all cases: inhibition of tumour cell growth, NCI panel, 48 h
[1] = tested on: U251 CNS
[2] = tested on: SK-MEL-28 melanoma
[3] = tested on: 786-0 renal
[4] = tested on: UACC-62 melanoma
[5] = tested on: DMS 273 small cell lung
[6] = tested on: HCC-2998 colon
[7] = tested on: HOP-62 NSCLC
[8] = tested on: SNB-75 CNS
[9] = tested on: DLD-1 colon
[10] = tested on: DMS 114 small cell lung
[11] = tested on: NCI-H23 lung
[12] = tested on: CAKI-1 renal
[13] = tested on: CCRF-CEM leukemia
[14] = tested on: LOX IMVI melanoma
[15] = tested on: UO-31 renal
[16] = tested on: ACHN renal
[17] = tested on: IGROV1 ovarian
[18] = tested on: NCI-H522 lung
[19] = tested on: HOP-18 NSCLC
[20] = tested on: OVCAR-4 ovarian
[21] = tested on: OVCAR-8 ovarian
[22] = tested on: RXF-631 renal
[23] = tested on: MALME-3M melanoma
[24] = tested on: LXFL 529 NSCLC
[25] = tested on: K-562 leukemia
[26] = tested on: RXF 393 renal
[27] = tested on: EKVX NSCLC
[28] = tested on: SK-MEL-2 melanoma
[29] = tested on: A549 NSCLC
[30] = tested on: SF-539 CNS
[31] = tested on: TK-10 renal
[32] = tested on: HL-60(TB) leukemia
[33] = tested on: OVCAR-3 ovarian
[34] = tested on: SF-295 CNS
[35] = tested on: HT29 colon
[36] = tested on: HOP-92 NSCLC
[37] = tested on: SK-OV-3 ovarian
[38] = tested on: SN12C renal
[39] = tested on: NCI-H460 lung
[40] = tested on: M14 melanoma
[41] = tested on: SK-MEL-5 melanoma
[42] = tested on: KM12 colon
[43] = tested on: KM20L2 colon
[44] = tested on: COLO 205 colon
[45] = tested on: SF-268 CNS
[46] = tested on: OVCAR-5 ovarian
[47] = tested on: M19-MEL melanoma
[48] = tested on: UACC-257 melanoma
[49] = tested on: SW-620 colon
[50] = tested on: A498 renal
[51] = tested on: RPMI-8226 leukemia
[52] = tested on: XF 498 CNS
[53] = tested on: MOLT-4 leukemia
[54] = tested on: HCT-15 colon
[55] = tested on: SNB-78 CNS
[56] = tested on: HCT-116 colon
[57] = tested on: SR leukemia
[58] = tested on: SNB-19 CNS

Structure (SMILES): O=C1/C(=C\c2ccccc2)C2/C(=C\c3ccccc3)C(=O)/C(=C\c3ccccc3)C2/C1=C\c1ccccc1 (stereo not given)
- TGI [1]: 2.43 µM
- TGI [2]: 8.75 µM
- TGI [3]: 2.78 µM
- TGI [4]: 4.24 µM
- TGI [5]: 3.17 µM
- TGI [6]: 2.59 µM
- TGI [7]: 5.03 µM
- TGI [8]: 71.2 µM
- TGI [9]: 2.85 µM
- TGI [10]: 5.67 µM
- TGI [11]: 3.78 µM
- TGI [12]: 8.17 µM
- TGI [13]: 4.35 µM
- TGI [14]: 1.75 µM
- TGI [15]: 3.32 µM
- TGI [16]: 5.94 µM
- TGI [17]: 4.8 µM
- TGI [18]: 2.09 µM
- TGI [19]: > 100 µM
- TGI [20]: 3.83 µM
- TGI [21]: 21.2 µM
- TGI [22]: 9.68 µM
- TGI [23]: 4.36 µM
- TGI [24]: 24.9 µM
- TGI [25]: > 100 µM
- TGI [26]: 3.15 µM
- TGI [27]: 52.7 µM
- TGI [28]: 3.62 µM
- TGI [29]: 7 µM
- TGI [30]: 6.81 µM
- TGI [31]: 19.5 µM
- TGI [32]: 4.5 µM
- TGI [33]: 4.92 µM
- TGI [34]: 5.71 µM
- TGI [35]: 3.7 µM
- TGI [36]: 4.4 µM
- TGI [37]: 46.9 µM
- TGI [38]: 4.89 µM
- TGI [39]: 4.2 µM
- TGI [40]: 3.44 µM
- TGI [41]: 4.7 µM
- TGI [42]: 3.54 µM
- TGI [43]: 3.55 µM
- TGI [44]: 2.94 µM
- TGI [45]: 18.5 µM
- TGI [46]: 2.82 µM
- TGI [47]: 3.47 µM
- TGI [48]: 4.2 µM
- TGI [49]: 7.26 µM

Structure (SMILES): CCCc1onc(CCC(=O)N(Cc2ccccc2)Cc2ccccc2)c1CC
- TGI [1]: > 100 µM
- TGI [3]: > 100 µM
- TGI [50]: > 100 µM
- TGI [4]: > 100 µM
- TGI [5]: > 100 µM
- TGI [6]: > 100 µM
- TGI [51]: > 100 µM
- TGI [7]: > 100 µM
- TGI [9]: > 100 µM
- TGI [10]: > 100 µM
- TGI [11]: > 100 µM
- TGI [12]: > 100 µM
- TGI [13]: > 100 µM
- TGI [14]: > 100 µM
- TGI [16]: > 100 µM
- TGI [17]: > 100 µM
- TGI [18]: > 100 µM
- TGI [52]: > 100 µM
- TGI [53]: > 100 µM
- TGI [20]: > 100 µM
- TGI [22]: > 100 µM
- TGI [23]: > 100 µM
- TGI [24]: > 100 µM
- TGI [25]: > 100 µM
- TGI [28]: > 100 µM
- TGI [32]: > 100 µM
- TGI [33]: > 100 µM
- TGI [34]: > 100 µM
- TGI [35]: > 100 µM
- TGI [36]: > 100 µM
- TGI [37]: > 100 µM
- TGI [54]: > 100 µM
- TGI [38]: > 100 µM
- TGI [39]: > 100 µM
- TGI [40]: > 100 µM
- TGI [55]: > 100 µM
- TGI [42]: > 100 µM
- TGI [43]: > 100 µM
- TGI [44]: > 100 µM
- TGI [45]: > 100 µM
- TGI [46]: > 100 µM
- TGI [47]: > 100 µM
- TGI [48]: > 100 µM

Structure (SMILES): C=C1CCC2C(C)(CO)C(O)CCC2(C)C1CC(O)/C(=C/CO)C(=O)O (stereo not given)
- TGI [1]: > 100 µM
- TGI [3]: > 100 µM
- TGI [50]: > 100 µM
- TGI [4]: > 100 µM
- TGI [5]: > 100 µM
- TGI [6]: > 100 µM
- TGI [51]: > 100 µM
- TGI [7]: > 100 µM
- TGI [8]: > 100 µM
- TGI [9]: > 100 µM
- TGI [10]: > 100 µM
- TGI [12]: > 100 µM
- TGI [13]: > 100 µM
- TGI [14]: > 100 µM
- TGI [15]: > 100 µM
- TGI [16]: > 100 µM
- TGI [17]: > 100 µM
- TGI [18]: > 100 µM
- TGI [19]: > 100 µM
- TGI [53]: > 100 µM
- TGI [20]: > 100 µM
- TGI [21]: > 100 µM
- TGI [22]: > 100 µM
- TGI [23]: > 100 µM
- TGI [24]: > 100 µM
- TGI [25]: > 100 µM
- TGI [26]: > 100 µM
- TGI [28]: > 100 µM
- TGI [29]: > 100 µM
- TGI [30]: > 100 µM
- TGI [31]: > 100 µM
- TGI [32]: > 100 µM
- TGI [56]: > 100 µM
- TGI [34]: > 100 µM
- TGI [35]: > 100 µM
- TGI [36]: > 100 µM
- TGI [37]: > 100 µM
- TGI [54]: > 100 µM
- TGI [38]: > 100 µM
- TGI [39]: > 100 µM
- TGI [40]: > 100 µM
- TGI [55]: > 100 µM
- TGI [41]: > 100 µM
- TGI [42]: > 100 µM
- TGI [43]: > 100 µM
- TGI [44]: > 100 µM
- TGI [45]: > 100 µM
- TGI [46]: > 100 µM
- TGI [57]: > 100 µM
- TGI [47]: > 100 µM
- TGI [58]: > 100 µM
- TGI [48]: > 100 µM
- TGI [49]: > 100 µM
